# Measurements published in US7645752B2, “Sulfonyl substituted 1H-indoles as ligands for the 5-hydroxytryptamine receptors” (Wyeth LLC, priority 2006, dated 2010).
# Read-outs that look alike come from different tables or passages of the source.
# Key:
# [1] = target: T1, human cloned 5-HT6 receptors (Homo sapiens, UniProt P50406); experiment: 5-HT6 binding affinity, [3H]-LSD displacement on membranes of Hela cells
# T1 construct: expressed in transfected cells; host or cells: HeLa cells
# Experimental: The affinity of test compounds for the 5-HT6 receptor is evaluated in the following manner. Cultured Hela cells expressing human cloned 5-HT6 receptors are harvested and centrifuged at low speed (1,000×g) for 10.0 min to remove the culture media. The harvested cells are suspended in half volume of fresh physiological phosphate buffered saline solution and recentrifuged at the same speed. This operation is repeated. The collected cells are then homogenized in ten volumes of 50 mM Tris.HCl (pH 7.4) and 0.5 mM EDTA. The homogenate is centrifuged at 40,000×g for 30.0 min and the precipitate is collected. The obtained pellet is resuspended in 10 volumes of Tris.HCl buffer and recentrifuged at the same speed. The final pellet is suspended in a small volume of Tris.HCl buffer and the tissue protein content is determined in aliquots of 10-25 microliter volumes. […] The volume of the suspended cell membranes is adjusted to give a tissue protein concentration of 1.0 mg/mL of suspension. The prepared membrane suspension (10 times concentrated) is aliquoted in 1.0 mL volumes and stored at −70° C. until used in subsequent binding experiments.
# Binding experiments are performed in a 96 well microtiter plate format in a total volume of 200 microliters. […] The test compounds are added in 20.0 microliter volume.
# The bound complex caught on the filter disk is allowed to air dry and the radioactivity is measured in a Packard TopCount® equipped with six photomultiplier detectors, after the addition of 40.0 microliter Microscint®-20 scintillant to each shallow well.
# Binding in the presence of varying concentrations of test compound is expressed as a percentage of specific binding in the absence of test compound. The results are plotted as log % bound versus log concentration of the test compound.
# human hNET = target: T2, human hNET (Homo sapiens, UniProt P23975); experiment: Norepinephrine (NE) uptake assay in MDCK-Net6 cells; type: cell-based; settings: for inhibition at 1 µM: MDCK-Net6
# T2 construct: expressed in transfected cells
# T2 sequence (P23975 whole entry): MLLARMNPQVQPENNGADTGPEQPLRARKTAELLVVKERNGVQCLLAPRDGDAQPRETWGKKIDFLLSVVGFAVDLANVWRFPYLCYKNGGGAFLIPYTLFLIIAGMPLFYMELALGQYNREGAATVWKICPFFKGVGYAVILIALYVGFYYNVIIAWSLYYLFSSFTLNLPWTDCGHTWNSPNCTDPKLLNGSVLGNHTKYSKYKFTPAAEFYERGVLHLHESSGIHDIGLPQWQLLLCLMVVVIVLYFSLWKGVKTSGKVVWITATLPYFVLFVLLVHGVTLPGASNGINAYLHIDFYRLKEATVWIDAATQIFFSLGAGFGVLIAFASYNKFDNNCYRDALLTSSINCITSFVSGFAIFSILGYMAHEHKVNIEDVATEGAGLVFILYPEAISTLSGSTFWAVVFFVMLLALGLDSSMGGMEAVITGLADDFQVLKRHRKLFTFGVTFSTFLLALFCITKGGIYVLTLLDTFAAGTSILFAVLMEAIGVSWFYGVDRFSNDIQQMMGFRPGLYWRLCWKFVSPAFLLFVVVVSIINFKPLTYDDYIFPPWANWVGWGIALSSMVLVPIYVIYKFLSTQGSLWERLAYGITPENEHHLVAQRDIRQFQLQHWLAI
# human 5-HT2A receptor = human 5-HT2A receptor (Homo sapiens, UniProt P28223); experiment: 5-HT2A FLIPR assay, antagonism of DOI calcium response in CHO cells; settings: for inhibition at 1 µM: CHO, read-out: 5-HT2A % Inhibition @ 1 uM
# Sequence of human 5-HT2A receptor (P28223 whole entry): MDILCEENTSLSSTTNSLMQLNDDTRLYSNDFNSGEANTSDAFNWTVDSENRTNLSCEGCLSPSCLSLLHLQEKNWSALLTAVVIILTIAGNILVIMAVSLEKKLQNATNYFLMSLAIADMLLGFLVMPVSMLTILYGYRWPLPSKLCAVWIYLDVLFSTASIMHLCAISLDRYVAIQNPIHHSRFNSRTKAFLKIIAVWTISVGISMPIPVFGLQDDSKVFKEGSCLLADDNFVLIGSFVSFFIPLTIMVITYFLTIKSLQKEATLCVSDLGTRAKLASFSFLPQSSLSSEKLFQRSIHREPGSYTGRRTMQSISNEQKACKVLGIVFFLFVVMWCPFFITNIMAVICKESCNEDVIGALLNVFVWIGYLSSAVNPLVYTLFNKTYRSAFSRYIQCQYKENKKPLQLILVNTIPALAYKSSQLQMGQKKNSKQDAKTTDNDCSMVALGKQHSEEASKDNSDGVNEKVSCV
# [2] = Table 1, 5-HT6 binding, at 1 micromole, read-out: % inhibition at 1 micromole
# [3] = Table 1, [3H]-LSD 3.0 nM, Hela cell membranes, read-out: Ki (nM) @ 5-HT6 receptor
# [4] = read-out: 5-HT2A IC50, antagonism of 3 nM DOI, CHO cells, FLIPR
# [5] = read-out: % inhibition at 1 micromole
# T1 sequence (P50406 whole entry): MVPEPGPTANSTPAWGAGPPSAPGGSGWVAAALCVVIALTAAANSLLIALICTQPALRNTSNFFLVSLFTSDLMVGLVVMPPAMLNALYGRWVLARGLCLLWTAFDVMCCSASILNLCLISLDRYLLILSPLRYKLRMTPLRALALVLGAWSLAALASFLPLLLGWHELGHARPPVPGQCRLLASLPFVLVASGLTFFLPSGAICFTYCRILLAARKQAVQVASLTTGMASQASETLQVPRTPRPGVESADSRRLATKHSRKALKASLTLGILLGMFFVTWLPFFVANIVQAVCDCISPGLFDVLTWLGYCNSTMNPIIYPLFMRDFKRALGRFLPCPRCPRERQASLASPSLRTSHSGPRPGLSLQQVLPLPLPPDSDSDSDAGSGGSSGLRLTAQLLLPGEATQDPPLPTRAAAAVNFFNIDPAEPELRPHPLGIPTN
"Ki [1, 3] [nM]","Ki ([1]; Table 2, read-out: 5-HT6 Ki) [nM]",IC50 (human 5-HT2A receptor) [nM],SMILES,"IC50 (human hNET; [3H]NE uptake, MDCK-Net6 cells) [nM]",other results
–,–,197,"CCN(CCc1cccc2[nH]cc(S(=O)(=O)c3ccccc3)c12)C(C)C [Example 54, N-ethyl-N-{2-[3-(phenylsulfonyl)-1H-indol-4-yl]ethyl}propan-2-amine]",485,–
–,642,–,"CC(C)(C)CNCCc1cccc2[nH]cc(S(=O)(=O)c3ccccc3)c12 [Example 49, N-(2,2-dimethylpropyl)-N-{2-[3-(phenylsulfonyl)-1H-indol-4-yl]ethyl}amine]",–,"inhibition at 1 µM [1, 2]: 63%; inhibition at 1 µM (human hNET): 37%"
73,73,197,"O=S(=O)(c1ccccc1)c1c[nH]c2cccc(CCN3CCCC3)c12 [Example 43, 3-(phenylsulfonyl)-4-(2-pyrrolidin-1-ylethyl)-1H-indole]",–,–
–,–,73,"CC1CCCCN1CCc1cccc2[nH]cc(S(=O)(=O)c3ccccc3)c12 (stereo not drawn) [Example 56, 4-[2-(2-methylpiperidin-1-yl)ethyl]-3-(phenylsulfonyl)-1H-indole]",–,–
107,107,24,"CC(NCCc1cccc2[nH]cc(S(=O)(=O)c3ccccc3)c12)C(C)(C)C (stereo not drawn) [Example 46, N-{2-[3-(phenylsulfonyl)-1H-indol-4-yl]ethyl}-N-(1,2,2-trimethylpropyl)amine]",2400,–
170,170,458,"O=S(=O)(c1ccccc1)c1c[nH]c2cccc(CCNC3CC3)c12 [Example 36, N-{2-[3-(phenylsulfonyl)-1H-indol-4-yl]ethyl}cyclopropanamine]",371,–
123,123,836,"O=S(=O)(c1ccccc1)c1c[nH]c2cccc(CCNCc3ccccc3)c12 [Example 47, N-benzyl-N-{2-[3-(phenylsulfonyl)-1H-indol-4-yl]ethyl}amine]",311,–
216,216,–,"CCCNCCc1cccc2[nH]cc(S(=O)(=O)c3ccccc3)c12 [Example 34, N-{2-[3-(phenylsulfonyl)-1H-indol-4-yl]ethyl}-N-propylamine]",–,IC50 (human 5-HT2A receptor; [4]): 1080 nM
–,–,114,"CC1CCCN1CCc1cccc2[nH]cc(S(=O)(=O)c3ccccc3)c12 (stereo not drawn) [Example 55, 4-[2-(2-methylpyrrolidin-1-yl)ethyl]-3-(phenylsulfonyl)-1H-indole]",121,–
355,–,–,"CNCCc1ccc2[nH]c(-c3ccccc3)c(S(=O)(=O)c3ccccc3)c2c1 [Example 17, N-methyl-N-{2-[2-phenyl-3-(phenylsulfonyl)-1H-indol-5-yl]ethyl}amine]",–,melting point: 180 to 185 °C
–,767,–,"O=S(=O)(c1ccccc1)c1c[nH]c2cccc(CCN3CCOCC3)c12 [Example 45, 4-(2-morpholin-4-ylethyl)-3-(phenylsulfonyl)-1H-indole]",–,"inhibition at 1 µM [1, 2]: 59%; inhibition at 1 µM (human hNET): 28%"
143,143,–,"CNCCc1cccc2[nH]cc(S(=O)(=O)c3ccccc3)c12 [Example 32, N-methyl-N-{2-[3-(phenylsulfonyl)-1H-indol-4-yl]ethyl}amine]",–,IC50 (human 5-HT2A receptor; [4]): 1100 nM
–,–,72,"CC1CCCN(CCc2cccc3[nH]cc(S(=O)(=O)c4ccccc4)c23)C1 (stereo not drawn) [Example 57, 4-[2-(3-methylpiperidin-1-yl)ethyl]-3-(phenylsulfonyl)-1H-indole]",–,–
–,–,628,"CC(C)N(C)CCc1cccc2[nH]cc(S(=O)(=O)c3ccccc3)c12 [Example 53, N-methyl-N-{2-[3-(phenylsulfonyl)-1H-indol-4-yl]ethyl}propan-2-amine]",126,–
91.5,92,–,"CN(C)CCCNCCc1cccc2[nH]cc(S(=O)(=O)c3ccccc3)c12 [Example 50, N,N-dimethyl-N′-{2-[3-(phenylsulfonyl)-1H-indol-4-yl]ethyl}propane-1,3-diamine]",–,inhibition at 1 µM (human hNET): 28%
207,207,1100,"CCNCCc1cccc2[nH]cc(S(=O)(=O)c3ccccc3)c12 [Example 33, N-ethyl-N-{2-[3-(phenylsulfonyl)-1H-indol-4-yl]ethyl}amine]",–,–

# The remaining lines, values behind:
SMILES,"Ki [1, 3] [nM]","Ki ([1]; Table 2, read-out: 5-HT6 Ki) [nM]",IC50 (human 5-HT2A receptor) [nM],"IC50 (human hNET; [3H]NE uptake, MDCK-Net6 cells) [nM]",other results
"NCCc1cccc2[nH]cc(S(=O)(=O)c3ccccc3)c12 [Example 61, {2-[3-(phenylsulfonyl)-1H-indol-4-yl]ethyl}amine]",993,993,14000,–,"inhibition at 1 µM [1, 2]: 44%; IC50 (human hNET): 961 nM"
"CCN(CC)CCc1cccc2[nH]cc(S(=O)(=O)c3ccccc3)c12 [Example 42, N,N-diethyl-N-{2-[3-(phenylsulfonyl)-1H-indol-4-yl]ethyl}amine]",–,–,–,241,"inhibition at 1 µM [1, 2]: 35%; inhibition at 1 µM ([1]; Table 2, @ 1 uM, read-out: 5-HT6 % Inhibition @ 1 uM): 35%; inhibition at 1 µM (human 5-HT2A receptor): 99%"
"CC(C)NCCCc1cccc2[nH]cc(S(=O)(=O)c3ccccc3)c12 [Example 110, N-isopropyl-3-[3-(phenylsulfonyl)-1H-indol-4-yl]propan-1-amine]",–,–,–,11,IC50 (human 5-HT2A receptor; [4]): 5980 nM
"O=S(=O)(c1ccccc1)c1c[nH]c2cccc(CCN3CCCCC3)c12 [Example 44, 3-(phenylsulfonyl)-4-(2-piperidin-1-ylethyl)-1H-indole]",–,434,–,–,"inhibition at 1 µM [1, 5]: 69%; IC50 (human hNET): 47 nM; IC50 (human 5-HT2A receptor; [4]): 180 nM"
"O=S(=O)(c1ccccc1)c1c[nH]c2cccc(CCN3CCNCC3)c12 [Example 60, 3-(phenylsulfonyl)-4-(2-piperazin-1-ylethyl)-1H-indole]",–,–,–,573,inhibition at 1 µM (human 5-HT2A receptor): 24%
"CN(CCc1cccc2[nH]cc(S(=O)(=O)c3ccccc3)c12)C1CCCCC1 [Example 41, N-cyclohexyl-N-methyl-N-{2-[3-(phenylsulfonyl)-1H-indol-4-yl]ethyl}amine]",126,126,418,109,–
"CNCCc1ccc2[nH]cc(S(=O)(=O)c3ccccc3)c2c1 [Example 14, N-methyl-N-{2-[3-(phenylsulfonyl)-1H-indol-5-yl]ethyl}amine]",5.2,–,–,–,melting point: 151 to 154 °C
"O=S(=O)(c1ccccc1)c1c[nH]c2cccc(CCNC3CCC3)c12 [Example 37, N-{2-[3-(phenylsulfonyl)-1H-indol-4-yl]ethyl}cyclobutanamine]",47,47,600,99,–
"CCN(C)CCCc1cccc2[nH]cc(S(=O)(=O)c3ccccc3)c12 [Example 112, N-ethyl-N-methyl-3-[3-(phenylsulfonyl)-1H-indol-4-yl]propan-1-amine]",–,–,–,28,IC50 (human 5-HT2A receptor; [4]): 477 nM
"CNCCc1ccc2[nH]c(C)c(S(=O)(=O)c3ccccc3)c2c1 [Example 15, N-methyl-N-{2-[2-methyl-3-(phenylsulfonyl)-1H-indol-5-yl]ethyl}amine]",–,–,–,–,Ki [1]: 44 nM; melting point: 213 to 215 °C
"O=S(=O)(c1ccccc1)c1c[nH]c2cccc(CCN3CCCCCC3)c12 [Example 58, 4-(2-azepan-1-ylethyl)-3-(phenylsulfonyl)-1H-indole]",–,–,90,–,–
"O=S(=O)(c1ccccc1)c1c[nH]c2cccc(CCNC3CCCCC3)c12 [Example 39, N-{2-[3-(phenylsulfonyl)-1H-indol-4-yl]ethyl}cyclohexanamine]",–,599,61,1430,"inhibition at 1 µM [1, 5]: 42%"
"CC1CCC[C@H](C)N1CCc1cccc2[nH]cc(S(=O)(=O)c3ccccc3)c12 (stereo in doubt) [Example 52, 4-{2-[(2R*,6S)-2,6-dimethylpiperidin-1-yl]ethyl}-3-(phenylsulfonyl)-1H-indole]",–,–,–,–,inhibition at 1 µM (human hNET): 32%; inhibition at 1 µM (human 5-HT2A receptor): 16%
"CN1CCN(CCc2cccc3[nH]cc(S(=O)(=O)c4ccccc4)c23)CC1 [Example 59, 4-[2-(4-methylpiperazin-1-yl)ethyl]-3-(phenylsulfonyl)-1H-indole]",–,–,–,1300,inhibition at 1 µM (human 5-HT2A receptor): 13%
"CCc1[nH]c2ccc(CCNC)cc2c1S(=O)(=O)c1ccccc1 [Example 16, N-{2-[2-ethyl-3-(phenylsulfonyl)-1H-indol-5-yl]ethyl}-N-methylamine]",–,–,–,–,Ki [1]: 29 nM; melting point: 179 to 182 °C
"O=S(=O)(c1ccccc1)c1c[nH]c2cccc(CCCN3CCCCC3)c12 [Example 111, 3-(phenylsulfonyl)-4-(3-piperidin-1-ylpropyl)-1H-indole]",–,–,–,932,IC50 (human 5-HT2A receptor; [4]): 7970 nM
